Data set [1] is described as follows: in vivo unbound brain to plasma ratio (Kpuu) at steady state. The following applies: rat, brain and plasma (unbound), continuous intravenous infusion over 24 hours, Sprague Dawley rats, free drug in brain vs plasma. The procedure:
Compounds of the present technology are predicted to show BBB passage according to internal proprietary predictive models. These predictive models were further verified by in vivo experiments. In particular, in vivo unbound brain to plasma ratio (Kpuu) was measured at steady state by comparison of free drug concentrations (protein binding corrected) in brain and plasma after continuous intravenous infusion in Sprague Dawley rats over 24 hours, where a Kpuu of >0.3 represents good brain exposure of the compound.

Data set [2] concerns the target PARP1 enzyme (Homo sapiens (Human), UniProt P09874). In words: PARP Mass Spectroscopy Assay (PARP1 enzymatic assay, nicotinamide detection). The data set is classed as biochemical. The following applies: 5 nM PARP1, 5 uM β-NAD, 60 min at RT, NAM by mass spectrometry. In a few lines: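 Compounds were pre-incubated 30 min at RT with 5 nM PARP1 and core histones, then reacted 60 min at RT with 5 uM β-NAD and activated DNA in Tris pH 8.0 buffer with MgCl2, NaCl, Triton X-100 and DTT. The reaction was quenched with 3ABA, and nicotinamide was measured by mass spectrometry. IC50 came from a four-parameter fit of 10-point curves.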

Data set [3] concerns the target human MDR1 (P-glycoprotein; P-gp) (Homo sapiens (Human), UniProt P08183). In words: bi-directional MDCK-MDR1 permeability assay. The data set is classed as in vitro ADME. The following applies: for Papp A→B: dog; for Papp A→B / efflux ratio: MDCK-MDR1; for efflux ratio: human, read-out: MDCK-MDR1 ER. From the text: The bi-directional assay containing a Mandin Darby canine kidney (MDCK) cell line transfected with human MDR1 gene (P-glycoprotein; P-gp) designed to overexpress the MDR1 efflux transporter, a major efflux transporter at the blood brain barrier (BBB), uses an established method that measures the rate of flux of a compound across polarized cell monolayers. As well appreciated in the art, the data generated from the MDCK-MDR1 permeability assay may be used to predict in vivo absorption of drugs. The bi-directional MDCK-MDR1 permeability assay can identify and quantify levels of active efflux. Screening compounds in both the apical to basolateral direction (A→B) and basolateral to apical direction (B→A) across the cell monolayer provides a ratio of B→A/A→B (efflux ratio; “ER”). Unlike the Caco-2 assay, the MDCK-MDR1 assay is not subject to potential efflux interference by breast cancer resistance protein (BCRP). […] The data may further be used to predict blood brain barrier (BBB) permeability via calculation from the data of log(permeability-surface area product) (“log PS”), well-understood to be predictive of the in vivo log([brain concentration]/[plasma concentration]).

The conditions of data set [4]: literature statement; cited from earlier work.
Data set [5] deals with tumors. The following applies: literature statement; cited from earlier work.
[6] abbreviates: apical to basolateral direction.

This is an account of results in patent US20250346599A1, “TRICYCLIC PHTHALAZINONE PARP INHIBITORS AND METHODS OF USE” (Valo Health, Inc., priority 2022, published 2025).

human MDR1 (P-glycoprotein; P-gp), sequence (P08183 whole entry): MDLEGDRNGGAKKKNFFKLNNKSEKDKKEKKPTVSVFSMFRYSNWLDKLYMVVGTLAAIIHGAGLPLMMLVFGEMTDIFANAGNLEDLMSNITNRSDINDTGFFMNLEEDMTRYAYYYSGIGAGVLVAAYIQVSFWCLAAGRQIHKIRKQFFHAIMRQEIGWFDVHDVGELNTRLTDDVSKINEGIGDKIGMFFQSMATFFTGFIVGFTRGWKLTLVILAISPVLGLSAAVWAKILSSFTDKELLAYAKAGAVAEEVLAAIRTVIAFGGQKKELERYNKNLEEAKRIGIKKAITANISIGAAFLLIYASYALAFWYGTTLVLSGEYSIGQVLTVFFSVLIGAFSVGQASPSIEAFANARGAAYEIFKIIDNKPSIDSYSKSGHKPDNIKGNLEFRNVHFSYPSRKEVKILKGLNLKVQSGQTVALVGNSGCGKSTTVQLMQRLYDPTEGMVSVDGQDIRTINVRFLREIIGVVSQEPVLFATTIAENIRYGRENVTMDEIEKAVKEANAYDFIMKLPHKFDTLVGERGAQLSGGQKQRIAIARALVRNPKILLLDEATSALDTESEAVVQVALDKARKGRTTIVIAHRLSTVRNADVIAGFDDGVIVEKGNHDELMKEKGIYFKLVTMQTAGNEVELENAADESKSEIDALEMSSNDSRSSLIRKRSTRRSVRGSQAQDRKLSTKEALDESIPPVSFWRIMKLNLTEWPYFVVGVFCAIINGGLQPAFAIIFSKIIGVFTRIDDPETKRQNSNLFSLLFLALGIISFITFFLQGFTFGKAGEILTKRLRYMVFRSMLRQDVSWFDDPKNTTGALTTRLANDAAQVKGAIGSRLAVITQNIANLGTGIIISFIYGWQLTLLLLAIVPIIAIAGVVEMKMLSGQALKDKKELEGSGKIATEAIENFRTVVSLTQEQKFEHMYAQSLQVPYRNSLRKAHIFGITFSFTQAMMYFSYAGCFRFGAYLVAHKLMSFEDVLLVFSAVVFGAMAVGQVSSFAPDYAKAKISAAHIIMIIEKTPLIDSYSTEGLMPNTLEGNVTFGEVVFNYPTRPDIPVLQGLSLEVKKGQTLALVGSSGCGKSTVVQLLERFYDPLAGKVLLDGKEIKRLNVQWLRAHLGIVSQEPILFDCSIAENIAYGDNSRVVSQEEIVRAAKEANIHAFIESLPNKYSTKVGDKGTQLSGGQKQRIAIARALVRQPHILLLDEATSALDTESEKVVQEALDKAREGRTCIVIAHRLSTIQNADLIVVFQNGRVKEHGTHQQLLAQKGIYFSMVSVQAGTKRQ
PARP1 enzyme, sequence (P09874 whole entry): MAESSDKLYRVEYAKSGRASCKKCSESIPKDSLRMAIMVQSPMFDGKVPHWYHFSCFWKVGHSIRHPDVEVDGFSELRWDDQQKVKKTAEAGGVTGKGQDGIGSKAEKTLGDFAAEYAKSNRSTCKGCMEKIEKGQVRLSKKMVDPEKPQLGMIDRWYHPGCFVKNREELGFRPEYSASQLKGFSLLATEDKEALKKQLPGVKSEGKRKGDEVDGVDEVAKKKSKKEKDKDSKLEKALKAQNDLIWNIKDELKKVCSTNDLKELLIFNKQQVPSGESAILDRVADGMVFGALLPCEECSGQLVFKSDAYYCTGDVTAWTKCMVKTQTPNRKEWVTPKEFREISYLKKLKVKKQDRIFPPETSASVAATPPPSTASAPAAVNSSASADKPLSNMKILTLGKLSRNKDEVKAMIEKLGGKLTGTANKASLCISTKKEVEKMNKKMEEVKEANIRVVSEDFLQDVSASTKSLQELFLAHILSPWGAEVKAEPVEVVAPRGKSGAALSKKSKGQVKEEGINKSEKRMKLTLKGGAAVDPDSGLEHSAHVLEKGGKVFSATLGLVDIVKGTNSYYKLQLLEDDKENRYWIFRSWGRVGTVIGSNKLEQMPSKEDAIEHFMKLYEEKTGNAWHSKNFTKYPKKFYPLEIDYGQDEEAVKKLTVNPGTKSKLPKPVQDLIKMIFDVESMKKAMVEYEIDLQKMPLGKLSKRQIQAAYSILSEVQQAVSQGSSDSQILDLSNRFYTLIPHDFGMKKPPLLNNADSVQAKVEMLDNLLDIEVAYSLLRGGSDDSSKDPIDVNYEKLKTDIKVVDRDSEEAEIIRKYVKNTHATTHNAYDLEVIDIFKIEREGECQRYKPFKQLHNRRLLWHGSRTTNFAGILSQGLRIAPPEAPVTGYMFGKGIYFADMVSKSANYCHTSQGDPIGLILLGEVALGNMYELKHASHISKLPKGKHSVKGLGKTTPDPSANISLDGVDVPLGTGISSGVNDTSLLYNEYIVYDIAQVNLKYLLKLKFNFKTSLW

In the case of `O=c1[nH]nc2c3c(cc(F)cc13)NC[C@@H]2c1ccc(F)cc1F` [Compound 0114B, (S)-9-(2,4-difluorophenyl)-5-fluoro-2,7,8,9-tetrahydro-3H-pyrido[4,3,2-de]phthalazin-3-one], in data set [1], the Kp uu at 24 h stood at 0.921. For the same compound, in data set [2], inhibition was half-maximal at 41 nM (IC50). Moreover, the apical-to-basolateral permeability (Papp A→B) – broadly, how fast a substance crosses the layer from the apical side – in data set [3] (setting [6]) is 18.6 ×10⁻⁶ cm/s. In data set [3] (efflux ratio B→A/A→B), the efflux ratio was determined as 0.55.
As for `Cn1ncnc1[C@H]1c2n[nH]c(=O)c3cc(F)cc(c23)N[C@@H]1c1ccc(F)cc1` [talazoparib], the “central nervous system (CNS) penetration” value in data set [4] is given as “do not have good central nervous system (CNS) penetration”.
For the compound `C[C@@H]1Nc2cc(F)cc3c(=O)[nH]nc(c23)[C@H]1c1ccc(F)cc1F` [Compound 0174B, (8S,9S)-9-(2,4-difluorophenyl)-5-fluoro-8-methyl-2,7,8,9-tetrahydro-3H-pyrido[4,3,2-de]phthalazin-3-one], the Kp uu at 24 h in data set [1] was determined as 0.591. Besides, the IC50 (as a rule, the point on the concentration scale where inhibition reaches its midpoint) in data set [2] amounted to 8 nM. The compound also gave a Papp A→B in data set [3] (setting [6]) of 13.8 ×10⁻⁶ cm/s. Besides, the efflux ratio in data set [3] (efflux ratio B→A/A→B) turned out to be 0.654.
As to `C[C@]1(c2nc3c(C(N)=O)cccc3[nH]2)CCCN1` [veliparib], the efficacy in tumors entry in data set [5] is listed as “not efficacious in most tumors”.
Regarding `NC(=O)c1cccc2cn(-c3ccc([C@@H]4CCCNC4)cc3)nc12` [niraparib], the “central nervous system (CNS) penetration” value in data set [4] is on record as “do not have good central nervous system (CNS) penetration”.
`C[C@@H]1Nc2cc(F)cc3c(=O)[nH]nc(c23)[C@H]1c1ccc(Cl)c(F)c1` [Compound 0195B, (8S,9S)-9-(4-chloro-3-fluorophenyl)-5-fluoro-8-methyl-2,7,8,9-tetrahydro-3H-pyrido[4,3,2-de]phthalazin-3-one] displayed an IC50 in data set [2] of 26 nM. The Papp A→B in data set [3] (setting [6]) was determined as 16.4 ×10⁻⁶ cm/s. Besides, in data set [3] (efflux ratio B→A/A→B), the efflux ratio is 0.691.
With `O=C(c1cc(Cc2n[nH]c(=O)c3ccccc23)ccc1F)N1CCN(C(=O)C2CC2)CC1` [olaparib], the “central nervous system (CNS) penetration” value in data set [4] is “do not have good central nervous system (CNS) penetration”.
As for `O=c1[nH]nc2c3c(cc(F)cc13)N[C@@H]([C@H]1CCOC1)[C@@H]2c1ccc(F)cc1F` [Compound 0115C], the midpoint of inhibition in data set [2], the IC50, lay at 252 nM. The “MDCK-MDR1 Papp A→B (10^−6 cm/s)” value in data set [3] (setting [6]) is reported as 4.82 10^−6 cm/s. Also, the “MDCK-MDR1 ER” value in data set [3] (efflux ratio B→A/A→B) is listed as 4.67.
In the case of `CNCc1ccc(-c2[nH]c3cc(F)cc4c3c2CCNC4=O)cc1` [rucaparib], the “central nervous system (CNS) penetration” value in data set [4] is “do not have good central nervous system (CNS) penetration”.
